Assay results as given in patent US20150168420A1, “BIOORTHOGONAL CHEMICAL INDUCERS OF REVERSIBLE DIMERIZATION FOR CONTROL OF PROTEIN FUNCTION IN CELLS” (MAX-PLANCK-GESELLSCHAFT ZUR FÖRDERUNG DER WISSENSCHAFTEN …, priority 2012, published 2015).
“Also recorded” adds a separate entry of the source.

Experiments:
[1] = biological target: Citrine-eDHFR-PM and Cherry-FKBP WT (Escherichia coli, UniProt P0ABQ4); assay: Translocation to plasma membrane and FLIM in MCF-7 cells, FKBP WT; assay type: cell-based; details: 2 μM, 2 h
[2] = biological target: FKBP(F36V) (Homo sapiens, UniProt P62942, F37V); details: cited from earlier work
[3] = biological target: wild type FKBP (Homo sapiens, UniProt P62942); details: cited from earlier work
[4] = tested on: Beclin1; details: starved EGFP-LC3 MCF-7 cells, 1 μM

CCC(C)(C)C(=O)C(=O)N1CCCCC1C(=O)O[C@H](CCc1ccc(OC)c(OC)c1)c1cccc(NC(=O)CCC(=O)NCCCOCCOCCOCCCNC(=O)COc2c(OC)cc(Cc3cnc(N)nc3N)cc2OC)c1 (some centres unmarked) [SLF-TMP]
translocation of cognate binding domain FKBP WT to the plasma membrane [1]: cannot induce translocation

CCC(C)(C)C(=O)C(=O)N1CCCC[C@H]1C(=O)O[C@H](CCc1ccc(OC)c(OC)c1)c1cccc(OCC(=O)O)c1 [SLF]
affinity to FKBP(F36V) ([2]; in words): low affinity
Kd ([3]; read-out: Kd for endogenous FKBP): 10 to 20 nM

CCC(C(=O)N1CCCCC1C(=O)O[C@H](CCc1ccc(OC)c(OC)c1)c1cccc(OCC(=O)NCCCOCCOCCOCCCNC(=O)COc2c(OC)cc(Cc3cnc(N)nc3N)cc2OC)c1)c1cc(OC)c(OC)c(OC)c1 (some centres unmarked) [SLF′-TMP]
autophagy (LC3 puncta) on Beclin1 knock off / knock on [4]: Inhibition of autophagy

CCC(C(=O)N1CCCCC1C(=O)O[C@H](CCc1ccc(OC)c(OC)c1)c1cccc(OCC(=O)O)c1)c1cc(OC)c(OC)c(OC)c1 (some centres unmarked) [SLF′]
Kd ([2]; read-out: Kd for binding domain of FKBP(F36V)): 0.094 nM
binding to naturally occurring (unmutated) FKBP ([3]; in words): does not bind at all; also recorded: very low affinity
fold lower affinity for wild type FKBP than for mutant FKBP(F36V) ([3]; wild type versus F36V): > 1000 fold

COc1cc(Cc2cnc(N)nc2N)cc(OC)c1OC [TMP, 5-(3,4,5-trimethoxybenzyl)pyrimidine-2,4-diamine]
autophagy (LC3 puncta) on Beclin1 knock off / knock on [4]: Recovery of autophagy
